Data: publication PMC8968852, “A New Spectral Shift-Based Method to Characterize Molecular Interactions” (Assay and Drug Development Technologies, 2022)
Like-named read-outs stand apart in the source and are kept apart here.

Experiments:
bCA-II [1] = details: literature ITC; cited from earlier work
bCA-II [2] = details: literature SPR; cited from earlier work
[3] = target: T1, Carbonic Anhydrase II from bovine erythrocytes (bCA-II) (Bos taurus, UniProt P00921); experiment: biochemical; type: binding
T1 construct: Carbonic Anhydrase II from bovine erythrocytes; purchased Sigma Aldrich C2522; host or cells: bovine erythrocytes
Experimental: NanoTemper Technologies GmbH) using the Monolith X instrument equipped with dual-emission detection optics (NanoTemper Technologies GmbH). The required volume per data point was 10 μL. Environment-sensitive near-infrared dyes with an emission maximum at around 660 nm (e.g., RED 2nd Generation dyes, NanoTemper Technologies GmbH, or Cy5) were used as fluorescent reporters. […] NanoTemper Technologies GmbH). […] A threefold molar excess of dye was added to the protein, followed by incubation for 30 min at room temperature in the dark. Unreacted dye was removed using the B-Column of the labeling kit. […] Any further dilution steps were carried out in assay buffer supplemented with 4% DMSO. […] After 5 min of incubation, samples were loaded into capillaries and placed into the device. Spectral shift measurements were performed at 25°C. […] In this model, the fraction bound f(cligand) at a given ligand concentration cligand in equilibrium is given as (1)

[4] = system: Cy5-labeled 13-mer (5′ Cy5 TTT GGA CTT CAG G 3′); experiment: Spectral shift DNA hybridization and van't Hoff analysis; type: binding
Experimental: Chemically synthesized DNA oligonucleotides were obtained from Metabion GmbH (Planegg, Germany). A Cy5-labeled 13-mer including a short poly-T spacer in front of a 10 base-long recognition sequence (sequence 5′ Cy5 TTT GGA CTT CAG G 3′) was designed as target and a complementary 10-mer (sequence 3′ CCT GAA GTC C 5′) as ligand. All other chemicals and reagents used in this study were of the highest available analytic grade.
All dual-emission spectral shift measurements in this work were performed in coated capillaries (cat# MO-K025; NanoTemper Technologies GmbH) using the Monolith X instrument equipped with dual-emission detection optics (NanoTemper Technologies GmbH). The required volume per data point was 10 μL. Environment-sensitive near-infrared dyes with an emission maximum at around 660 nm (e.g., RED 2nd Generation dyes, NanoTemper Technologies GmbH, or Cy5) were used as fluorescent reporters. For each ratiometric reading, the fluorescence was recorded simultaneously at 650 and 670 nm for 5 s (Table 1).
Lyophilized DNA oligonucleotides were resuspended in ddH2O to a concentration of 100 μM. Assay buffer (20 mM sodium phosphate buffer, pH 7.2, 100 mM NaCl, 0.05% TWEEN® 20) was prepared as twofold stock. Cy5-labeled 13-mer was further diluted in twofold assay buffer. Serial dilution of 10-mer was performed in ddH2O. The highest final concentration of 10-mer in the 16-point dilution series was 2 μM and the final concentration of Cy5-labeled 13-mer was 2.5 nM with 20 μL in each sample. For ratiometric fluorescence analysis, the device was adjusted to the desired temperature and samples were incubated for 5 min before starting the measurement. Measurements were performed at 23°C to 37°C in 2°C increments and then repeated in reverse order. Capillaries were sealed with Capillary Sealing Paste (cat# PR-P001; NanoTemper Technologies GmbH) to prevent evaporation.
Ratios of the fluorescence intensities at 670 and 650 nm were calculated automatically within the MO.Control software (NanoTemper Technologies GmbH). For Kd determination, dose–response curves were fitted with a binding model that describes a molecular interaction with a 1:1 stoichiometry according to the law of mass action. In this model, the fraction bound f(cligand) at a given ligand concentration cligand in equilibrium is given as (1) fcligand=cligand+ctarget+Kd−cligand+ctarget+Kd^2−4⋅cligand⋅ctarget/2ctarget
Van't Hoff plots were prepared by plotting the logarithm of the dissociation constant, ln Kd, over the inverse temperature, 1/T. A linear regression was then used to calculate thermodynamic parameters according to (5) ΔH=R⋅slope

GLUT1 = details: reported IC50 from cellular assays; cited from earlier work
[5] = van't Hoff analysis, 23°C to 37°C

T1 sequence (P00921 whole entry): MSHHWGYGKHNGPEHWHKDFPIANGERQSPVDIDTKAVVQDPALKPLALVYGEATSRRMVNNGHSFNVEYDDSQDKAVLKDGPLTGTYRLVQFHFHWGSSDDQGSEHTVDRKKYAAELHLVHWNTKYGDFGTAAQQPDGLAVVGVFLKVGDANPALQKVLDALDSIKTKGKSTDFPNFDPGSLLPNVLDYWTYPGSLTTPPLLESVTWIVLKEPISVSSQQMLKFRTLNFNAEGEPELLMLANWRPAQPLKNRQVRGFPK

Compound: NS(=O)(=O)c1ccccc1 [Benzenesulfonamide, benzenesulfonamide]
- Kd (bCA-II [1]): 839 nM
- Kd (bCA-II [2]): 848 nM
- Kd [3]: 502 ± 67 nM
- 670 nm/650 nm ratio of labeled bCA-II upon inhibitor binding ([3]; final value, without bound inhibitor 0.884): 0.890

Compound: 3′ CCT GAA GTC C 5′ (DNA CCTGAAGTCC; chemistry not fully specified; listed 3' to 5') [10-mer, chemically synthesized DNA 10-mer complementary to the Cy5-labeled 13-mer target]
- Kd ([4]; 23 °C): 1.77 ± 0.06 nM
- Kd ([4]; 25 °C): 3.35 ± 0.11 nM
- Kd ([4]; 27 °C): 6.52 ± 0.17 nM
- Kd ([4]; 29 °C): 12.8 ± 0.3 nM
- Kd ([4]; 31 °C): 25.4 ± 0.4 nM
- Kd ([4]; 33 °C): 50.4 ± 0.7 nM
- Kd ([4]; 35 °C): 102 ± 2 nM
- Kd ([4]; 37 °C): 198 ± 4 nM
- entropy ΔS [4, 5]: −168.5 cal/mol/K
- van't Hoff enthalpy ΔH [4, 5]: -61.8 kcal/mol
